# From ChEMBL document CHEMBL1144809, “Synthesis and biological evaluation of histone deacetylase inhibitors that are based on FR235222: a cyclic tetrapeptide scaffold” (Bioorg Med Chem Lett, 2008)
# What was measured:
# [1] = tested on: BXPC-3; test: Cytotoxicity against human BxPC3 cells at 5 uM; type: functional; conditions: read-out: GI
# [2] = tested on: Histone deacetylase (Homo sapiens); test: Inhibition of HDAC at 200 uM relative to control
SMILES,inhibition of growth at 5 µM [1] [%],inhibition [2] [%]
CC[C@@H]1NC(=O)[C@H](CCCCNC(C)=O)NC(=O)[C@H]2CCCN2C(=O)[C@H](Cc2ccccc2)N(C)C1=O,19,86
CC[C@@H]1NC(=O)[C@H](CCCCNC(C)=O)NC(=O)[C@H]2CCCN2C(=O)[C@H](Cc2ccccc2)NC1=O,38,38
CC[C@@H]1NC(=O)[C@H](CCCNC(=N)N)NC(=O)[C@H]2CCCN2C(=O)[C@@H]2Cc3ccccc3CN2C1=O,0,83
CC[C@@H]1NC(=O)[C@H](CCCNC(=N)N)NC(=O)[C@H]2CCCN2C(=O)[C@H](Cc2ccccc2)NC1=O,27,97
CCC(=O)CCCCC[C@@H]1NC(=O)[C@H]2CCCCN2C(=O)[C@H]([C@@H](C)CC)NC(=O)[C@H](Cc2cn(OC)c3ccccc23)NC1=O [APICIDIN],98,–
CC[C@@H]1NC(=O)[C@H](CCCNC(=N)N)NC(=O)[C@H]2CCCN2C(=O)[C@@H](Cc2ccccc2)NC1=O,17,97
CC[C@@H]1NC(=O)[C@H](CCCNC(=N)N)NC(=O)[C@H]2CCCCN2C(=O)[C@@H](Cc2ccccc2)NC1=O,20,98
